US20230345943A1, “METHOD AND PROCESS FOR COMPLETE ELIMINATION OF VARIOUS STEPS OF PEST GROWTH IN PLANTS USING DI[…] BASED ON ETHA[…] AND HYDROGEN PEROXIDE” (priority 2020, published 2023)

Tests used:
[1] = tested on: fungus, bacteria and viruses and plant pests in all stages such as eggs, larva, adults; test: Spray with wetting agent to control plant pathogens and pests; format: in vivo; settings: 3 liters (active ingredient at least 20%) plus 500 cc of non-ionic fatty amine compounds in 1000 liters of water
Text: For longer durability of Ethaneperoxoic acid based compounds, non-ionic fatty amine compounds (wetting agent) should be used in this method for the first time in two different ways, both within the formulation or added separately to the compound. These compounds cause the Ethaneperoxoic acid that is sprayed on the target to increase the duration of exposure of Ethaneperoxoic acid to the chitin surface of insects due to the reduction of surface tension of water droplets.

[2] = tested on: Chilo suppressalis; test: Field protocol against Chilo suppressalis in rice; format: in vivo; settings: six-step protocol, dosage of 1 to 2 in one thousand from transplantation treasury to before harvest
Text: In this invention ethaneperoxoic acid used for the first time to fight with Chilo suppressalis with the below mentioned method: • Step 1: The dosage of 1 in one thousand in the transplantation treasury; • Step 2: At the time of transferring the seedlings to the field with the dosage of 1 in one thousand to fight with the first generation; • Step 3: 10 days after transferring the seedlings to the field with the dosage of 1 in one thousand to fight with the second generation; • Step 4: 30 days after transferring the seedlings to the field with the dosage of 1 in one thousand; • Step 5: 45 days after transferring the seedlings to the field with the dosage of 2 in one thousand and 1 in one thousand to fight with the third generation; • Step 6: before harvesting the rice with the dosage of 2 in one thousand.

In the case of `CC(=O)OO` [ethaneperoxoic acid], the “effect in controlling fungus, bacteria and viruses and plant pests in all stages” value [1] is reported as “significant impressive effect” and the “damage due to the Chilo suppressalis” value [2] is reported as “completely control”.
